Results on 21 compounds are retold here after patent US20260325533A1, “CDK INHIBITOR COMPOUNDS” (ALEKSIA THERAPEUTICS, INC., priority 2023, published 2026).

Common to all, as to assay type: biochemical
The target in assay [1] is CDK1/CCNB1 (Homo sapiens, UniProt P06493). Briefly: CDK1 homogeneous time-resolved fluorescence (HTRF) kinase assay. Conditions: CDK1/CCNB; x = IC50 >250 nM; read-out: CDK1/CCNB IC50 (>250 nM column). Summed up:
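0.5 nM CDK1/CCNB1 was preincubated 20 min at 23 °C with compound in HEPES pH-unspecified buffer (MgCl2, EGTA, DTT, Tween 20), then reacted 60 min with 1 mM ATP and 50 nM ULight-4E-BP1 (Thr37/46) peptide. EDTA-stopped reactions were detected with 2 nM Eu-anti-phospho antibody; IC50 from 11-point half-log titrations.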

The target in assay [2] is CDK4/CCND3 (Homo sapiens, UniProt P11802). Briefly: CDK4 homogeneous time-resolved fluorescence (HTRF) kinase assay. Conditions: CDK4/CCND. Summed up:
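Steps: compound plus 1.5 nM CDK4/CCND3, 20 min, 23 °C; add 1 mM ATP and 50 nM ULight-4E-BP1 (Thr37/46) peptide, 60 min; stop with 10 mM EDTA; add 2 nM Eu anti-phospho antibody, 60 min; read 665 nm. IC50 from 11-point half-log series starting 10 μM.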

The target in assay [3] is CDK2/CCNE1 (Homo sapiens, UniProt P24941). Briefly: CDK2 homogeneous time-resolved fluorescence (HTRF) kinase assay. Particulars: CDK2/CCNE. In a few lines: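 Compounds were titrated 11-point, half-log from typically 10 μM against 3 nM CDK2/cyclin E1 at 1 mM ATP, with a 20 min enzyme preincubation. Phosphorylation of 50 nM ULight-4E-BP1 peptide over 60 min at 23 °C was detected by europium anti-phospho antibody TR-FRET.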

Assay [4] concerns the target CDK6/CCND1 (Homo sapiens, UniProt Q00534). Briefly: CDK6 homogeneous time-resolved fluorescence (HTRF) kinase assay. Conditions: CDK6/CCND. In a few lines:
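Enzyme pre-incubated 20 min at 23 °C with compound, then reacted 60 min at 23 °C with 1 mM ATP and 50 nM ULight-4E-BP1 (Thr37/46) peptide; 1 nM enzyme, 1% DMSO. EDTA-stopped, Eu-anti-phospho antibody TR-FRET read (665 nm or 665/615 ratio); 11-point half-log titration from 10 μM gave IC50.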

Setting [5] is: x = IC50 >250 nM, read-out: CDK4/CCND IC50 (>250 nM column).
The mark [6] stands for this setting: x = IC50 <25 nM, read-out: CDK2/CCNE IC50 (<25 nM).
[7] abbreviates: x = IC50 >250 nM, read-out: CDK6/CCND IC50 (>250 nM column).
Where [8] appears, read: x = IC50 25-250 nM, read-out: CDK2/CCNE IC50 (25-250 nM).
Setting [9] is: x = IC50 25-250 nM, read-out: CDK4/CCND IC50 (25-250 nM).

Read-outs that look alike come from different tables or passages of the source. Where only a bound is given, the exact number is not on record here.

CDK4/CCND3, sequence (P11802 whole entry): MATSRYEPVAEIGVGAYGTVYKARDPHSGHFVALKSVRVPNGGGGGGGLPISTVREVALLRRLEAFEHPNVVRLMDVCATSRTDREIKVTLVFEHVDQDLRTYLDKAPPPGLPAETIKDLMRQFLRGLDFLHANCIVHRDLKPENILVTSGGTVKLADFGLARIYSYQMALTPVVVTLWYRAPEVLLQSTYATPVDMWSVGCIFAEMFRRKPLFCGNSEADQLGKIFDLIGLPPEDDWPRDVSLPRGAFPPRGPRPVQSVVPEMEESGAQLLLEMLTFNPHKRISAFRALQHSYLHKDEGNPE
CDK4/CCND3, sequence (P30281 whole entry partner): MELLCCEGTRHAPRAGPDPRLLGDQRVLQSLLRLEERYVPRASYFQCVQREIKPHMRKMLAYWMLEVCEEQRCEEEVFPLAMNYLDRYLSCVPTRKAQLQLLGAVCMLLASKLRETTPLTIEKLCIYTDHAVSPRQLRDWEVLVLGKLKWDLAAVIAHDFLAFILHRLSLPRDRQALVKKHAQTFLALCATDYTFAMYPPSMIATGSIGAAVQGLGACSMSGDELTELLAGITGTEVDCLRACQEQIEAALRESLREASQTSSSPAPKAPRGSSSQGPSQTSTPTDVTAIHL
CDK6/CCND1, sequence (Q00534 whole entry): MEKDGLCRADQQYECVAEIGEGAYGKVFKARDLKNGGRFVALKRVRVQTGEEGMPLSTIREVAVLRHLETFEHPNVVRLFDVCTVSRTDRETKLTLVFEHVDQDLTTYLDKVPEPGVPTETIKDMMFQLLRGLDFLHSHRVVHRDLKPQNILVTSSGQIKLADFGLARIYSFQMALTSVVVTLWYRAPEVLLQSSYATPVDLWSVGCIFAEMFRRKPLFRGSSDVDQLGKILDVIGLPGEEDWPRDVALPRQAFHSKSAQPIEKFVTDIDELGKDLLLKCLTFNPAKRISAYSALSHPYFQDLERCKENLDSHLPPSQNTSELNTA
CDK6/CCND1, sequence (P24385 whole entry partner): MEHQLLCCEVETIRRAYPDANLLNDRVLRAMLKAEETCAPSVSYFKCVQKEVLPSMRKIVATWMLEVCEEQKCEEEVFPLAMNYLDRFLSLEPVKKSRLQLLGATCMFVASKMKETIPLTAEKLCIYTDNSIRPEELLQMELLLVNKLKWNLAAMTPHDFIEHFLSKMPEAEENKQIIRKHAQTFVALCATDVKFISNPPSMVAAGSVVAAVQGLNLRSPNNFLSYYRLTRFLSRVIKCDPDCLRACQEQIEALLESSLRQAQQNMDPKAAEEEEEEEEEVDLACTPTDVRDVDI
CDK1/CCNB1, sequence (P06493 whole entry): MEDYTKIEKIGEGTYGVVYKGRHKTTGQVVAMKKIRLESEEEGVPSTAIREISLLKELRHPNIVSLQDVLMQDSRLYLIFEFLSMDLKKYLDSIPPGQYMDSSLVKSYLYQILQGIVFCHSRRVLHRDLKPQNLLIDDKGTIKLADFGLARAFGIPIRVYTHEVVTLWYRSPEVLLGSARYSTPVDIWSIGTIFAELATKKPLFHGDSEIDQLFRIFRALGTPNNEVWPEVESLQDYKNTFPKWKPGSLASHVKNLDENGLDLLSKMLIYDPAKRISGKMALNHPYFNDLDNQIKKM
CDK1/CCNB1, sequence (P14635 whole entry partner): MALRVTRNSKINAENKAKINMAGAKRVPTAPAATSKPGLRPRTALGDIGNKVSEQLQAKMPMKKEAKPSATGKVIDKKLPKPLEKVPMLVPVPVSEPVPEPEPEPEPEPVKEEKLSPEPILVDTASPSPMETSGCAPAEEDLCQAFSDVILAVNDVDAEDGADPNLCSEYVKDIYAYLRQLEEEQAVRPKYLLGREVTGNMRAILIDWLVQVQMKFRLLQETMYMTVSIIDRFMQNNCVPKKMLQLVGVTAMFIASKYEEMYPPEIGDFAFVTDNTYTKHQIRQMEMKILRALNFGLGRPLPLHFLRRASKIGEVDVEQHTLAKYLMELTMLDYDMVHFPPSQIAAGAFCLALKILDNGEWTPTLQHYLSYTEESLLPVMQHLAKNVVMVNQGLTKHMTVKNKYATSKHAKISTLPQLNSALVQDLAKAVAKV

For `CS(=O)(=O)c1ccc(Nc2cc3c(C#CC4CCN(CC(=O)O)CC4)nccc3cn2)cc1` [Ex 609, 2-(4-((7-((4-(methylsulfonyl)phenyl)amino)-2,6-naphthyridin-1-yl)ethynyl)piperidin-1-yl)acetic acid], the IC50 in assay [1] was above 250 nM; in assay [2] (setting [5]), above 250 nM; in assay [3] (setting [6]) it was below 25 nM; in assay [4] (setting [7]) it was above 250 nM.

On to `Cc1c(-c2nccc3cnc(Nc4ccc(S(C)(=O)=O)cc4)cc23)ccc2c1cnn2C(C)(C)C(N)=O` [Ex 610, 2-methyl-2-(4-methyl-5-(7-((4-(methylsulfonyl)phenyl)amino)-2,6-naphthyridin-1-yl)-1H-indazol-1-yl)propanamide], for which the IC50 in assay [1] was above 250 nM; in assay [2] (setting [5]) it was above 250 nM; in assay [3] (setting [8]), 25 to 250 nM; in assay [4] (setting [7]) it was above 250 nM.

On to `CS(=O)(=O)c1ccc(Nc2cc3c(C#Cc4cncc5[nH]ncc45)nccc3cn2)cc1` [Ex 611, 5-((1H-pyrazolo[3,4-c]pyridin-4-yl)ethynyl)-N-(4-(methylsulfonyl)phenyl)-2,6-naphthyridin-3-amine], for which the IC50 is above 250 nM in assay [1], above 250 nM in assay [2] (setting [5]), 25 to 250 nM in assay [3] (setting [8]) and above 250 nM in assay [4] (setting [7]).

Consider `CS(=O)(=O)c1ccc(Nc2cc3c(C#Cc4cc(Cl)n[nH]c4=O)nccc3cn2)cc1` [Ex 612, 6-chloro-4-((7-((4-(methylsulfonyl)phenyl)amino)-2,6-naphthyridin-1-yl)ethynyl)pyridazin-3(2H)-one], for which the IC50 was above 250 nM in assay [1], above 250 nM in assay [2] (setting [5]), 25 to 250 nM in assay [3] (setting [8]) and above 250 nM in assay [4] (setting [7]).

On to `CS(=O)(=O)c1ccc(Nc2cc3c(C#Cc4cnc(N)nn4)nccc3cn2)cc1` [Ex 613, 5-((3-amino-1,2,4-triazin-6-yl)ethynyl)-N-(4-(methylsulfonyl)phenyl)-2,6-naphthyridin-3-amine], for which the IC50 in assay [1] was above 250 nM; in assay [2] (setting [5]), above 250 nM; in assay [3] (setting [8]), 25 to 250 nM; in assay [4] (setting [7]), above 250 nM.

Consider `Cc1c(-c2nccc3cnc(Nc4ccc(S(C)(=O)=O)c(O)c4)cc23)ccc2c1cnn2CCO` [Ex 616, 5-((5-(1-(2-hydroxyethyl)-4-methyl-1H-indazol-5-yl)-2,6-naphthyridin-3-yl)amino)-2-(methylsulfonyl)phenol], for which the IC50 in assay [1] was above 250 nM; in assay [2] (setting [9]), 25 to 250 nM; in assay [3] (setting [6]), below 25 nM; in assay [4] (x = IC50 25-250 nM, read-out: CDK6/CCND IC50 (25-250 nM)), 25 to 250 nM.

Regarding `COc1cc(Nc2cc3c(-c4ccc5c(cnn5CCO)c4C)nccc3cn2)ccc1S(C)(=O)=O` [Ex 617, 2-(5-(7-((3-methoxy-4-(methylsulfonyl)phenyl)amino)-2,6-naphthyridin-1-yl)-4-methyl-1H-indazol-1-yl)ethan-1-ol], the IC50 in assay [1] is above 250 nM; in assay [2] (setting [5]) it was above 250 nM; in assay [3] (setting [8]) it was 25 to 250 nM; in assay [4] (setting [7]), above 250 nM.

Consider `CS(=O)(=O)c1ccc(Nc2cc3c(C#Cc4ccc(=O)[nH]n4)nccc3cn2)cc1` [Ex 618, 6-((7-((4-(methylsulfonyl)phenyl)amino)-2,6-naphthyridin-1-yl)ethynyl)pyridazin-3(2H)-one], for which the IC50 in assay [1] was above 250 nM; in assay [2] (setting [5]), above 250 nM; in assay [3] (setting [6]) it was below 25 nM; in assay [4] (setting [7]), above 250 nM.

Turning to `CS(=O)(=O)c1ccc(Nc2cc3c(C#Cc4ccc(CC#N)cc4)nccc3cn2)cc1` [Ex 620, 2-(4-((7-((4-(methylsulfonyl)phenyl)amino)-2,6-naphthyridin-1-yl)ethynyl)phenyl)acetonitrile], the IC50 is above 250 nM in assay [1], above 250 nM in assay [2] (setting [5]), 25 to 250 nM in assay [3] (setting [8]) and above 250 nM in assay [4] (setting [7]).

With `CS(=O)(=O)c1ccc(Nc2cc3c(C#Cc4cccc5cn[nH]c45)nccc3cn2)cc1` [Ex 621, 5-((1H-indazol-7-yl)ethynyl)-N-(4-(methylsulfonyl)phenyl)-2,6-naphthyridin-3-amine], the IC50 in assay [1] is above 250 nM; in assay [2] (setting [5]) it was above 250 nM; in assay [3] (setting [8]), 25 to 250 nM; in assay [4] (setting [7]), above 250 nM.

Regarding `CS(=O)(=O)c1ccc(Nc2cc3c(C#Cc4cnc(N)cn4)nccc3cn2)cc1` [Ex 622, 5-((5-aminopyrazin-2-yl)ethynyl)-N-(4-(methylsulfonyl)phenyl)-2,6-naphthyridin-3-amine], the IC50 was above 250 nM in assay [1], above 250 nM in assay [2] (setting [5]), 25 to 250 nM in assay [3] (setting [8]) and above 250 nM in assay [4] (setting [7]).

Turning to `CS(=O)(=O)c1ccc(Nc2cc3c(C#Cc4cccnc4)nccc3cn2)cc1` [Ex 623, N-(4-(methylsulfonyl)phenyl)-5-(pyridin-3-ylethynyl)-2,6-naphthyridin-3-amine], the IC50 in assay [1] was above 250 nM; in assay [2] (setting [5]) it was above 250 nM; in assay [3] (setting [8]) it was 25 to 250 nM; in assay [4] (setting [7]), above 250 nM.

Consider `CN1Cc2cc(-c3nccc4cnc(Nc5ccc(S(C)(=O)=O)cc5)cc34)ccc2C1=O` [Ex 624, 2-methyl-5-(7-((4-(methylsulfonyl)phenyl)amino)-2,6-naphthyridin-1-yl)isoindolin-1-one], for which the IC50 in assay [1] was above 250 nM; in assay [2] (setting [5]), above 250 nM; in assay [3] (setting [8]), 25 to 250 nM; in assay [4] (setting [7]), above 250 nM.

For `CS(=O)(=O)c1ccc(Nc2cc3c(C#Cc4ccc(O)cn4)nccc3cn2)cc1` [Ex 627, 6-((7-((4-(methylsulfonyl)phenyl)amino)-2,6-naphthyridin-1-yl)ethynyl)pyridin-3-ol], the IC50 is above 250 nM in assay [1], above 250 nM in assay [2] (setting [5]), 25 to 250 nM in assay [3] (setting [8]) and above 250 nM in assay [4] (setting [7]).

Take `CC(=O)Nc1ccc(C#Cc2nccc3cnc(Nc4ccc(S(C)(=O)=O)cc4)cc23)cc1` [Ex 631, N-(4-((7-((4-(methylsulfonyl)phenyl)amino)-2,6-naphthyridin-1-yl)ethynyl)phenyl)acetamide]: the IC50 in assay [1] is above 250 nM; in assay [2] (setting [5]), above 250 nM; in assay [3] (setting [6]), below 25 nM; in assay [4] (setting [7]), above 250 nM.

Take `CS(=O)(=O)c1ccc(Nc2cc3c(C#Cc4cnc(N)nc4)nccc3cn2)cc1` [Ex 633, 5-((2-aminopyrimidin-5-yl)ethynyl)-N-(4-(methylsulfonyl)phenyl)-2,6-naphthyridin-3-amine]: the IC50 in assay [1] was above 250 nM; in assay [2] (setting [5]), above 250 nM; in assay [3] (setting [8]) it was 25 to 250 nM; in assay [4] (setting [7]) it was above 250 nM.

On to `CNC(=O)c1ccc(C#Cc2nccc3cnc(Nc4ccc(S(C)(=O)=O)cc4)cc23)cc1` [Ex 634, N-methyl-4-((7-((4-(methylsulfonyl)phenyl)amino)-2,6-naphthyridin-1-yl)ethynyl)benzamide], for which the IC50 in assay [1] was above 250 nM; in assay [2] (setting [5]), above 250 nM; in assay [3] (setting [6]), below 25 nM; in assay [4] (setting [7]), above 250 nM.

On to `CS(=O)(=O)c1ccc(Nc2cc3c(C#Cc4cnn(C5CC5)c4)nccc3cn2)cc1` [Ex 635, 5-((1-cyclopropyl-1H-pyrazol-4-yl)ethynyl)-N-(4-(methylsulfonyl)phenyl)-2,6-naphthyridin-3-amine], for which the IC50 in assay [1] is above 250 nM; in assay [2] (setting [5]), above 250 nM; in assay [3] (setting [8]) it was 25 to 250 nM; in assay [4] (setting [7]) it was above 250 nM.

In the case of `CS(=O)(=O)c1ccc(Nc2cc3c(C#Cc4ccc(OC(F)F)cc4)nccc3cn2)cc1` [Ex 636, 5-((4-(difluoromethoxy)phenyl)ethynyl)-N-(4-(methylsulfonyl)phenyl)-2,6-naphthyridin-3-amine], the IC50 in assay [1] was above 250 nM; in assay [2] (setting [5]), above 250 nM; in assay [3] (setting [8]), 25 to 250 nM; in assay [4] (setting [7]), above 250 nM.

Take `Cn1nccc1C#Cc1nccc2cnc(Nc3ccc(S(C)(=O)=O)cc3)cc12` [Ex 637, 5-((1-methyl-1H-pyrazol-5-yl)ethynyl)-N-(4-(methylsulfonyl)phenyl)-2,6-naphthyridin-3-amine]: the IC50 in assay [1] is above 250 nM; in assay [2] (setting [5]), above 250 nM; in assay [3] (setting [6]), below 25 nM; in assay [4] (setting [7]) it was above 250 nM.

As for `CS(=O)(=O)c1ccc(Nc2cc3c(C#Cc4ccc5cn[nH]c5c4)nccc3cn2)cc1` [Ex 638, 5-((1H-indazol-6-yl)ethynyl)-N-(4-(methylsulfonyl)phenyl)-2,6-naphthyridin-3-amine], the IC50 in assay [1] is above 250 nM; in assay [2] (setting [9]) it was 25 to 250 nM; in assay [3] (setting [6]) it was below 25 nM; in assay [4] (setting [7]) it was above 250 nM.
